Measurements: patent US20120208852A1, “Heterocyclic-substituted 2-acetamido-5-aryl-1,2,4-triazolones and use thereof” (BAYER PHARMA AKTIENGESELLSCHAFT, priority 2009, published 2012)

Legend:
human V1a receptor = target: T1, human V1a receptor (Homo sapiens, UniProt P37288); assay: Cellular in vitro assay for vasopressin receptor activity (aequorin luminescence), hV1a; assay type: cell-based; settings: CHO cell line transfected with the human V1a receptor, agonist [Arg8]-vasopressin
T1 construct: expressed in transfected cells; host or cells: CHO K1 (constitutively expressing modified aequorin)
T1 sequence (P37288 whole entry): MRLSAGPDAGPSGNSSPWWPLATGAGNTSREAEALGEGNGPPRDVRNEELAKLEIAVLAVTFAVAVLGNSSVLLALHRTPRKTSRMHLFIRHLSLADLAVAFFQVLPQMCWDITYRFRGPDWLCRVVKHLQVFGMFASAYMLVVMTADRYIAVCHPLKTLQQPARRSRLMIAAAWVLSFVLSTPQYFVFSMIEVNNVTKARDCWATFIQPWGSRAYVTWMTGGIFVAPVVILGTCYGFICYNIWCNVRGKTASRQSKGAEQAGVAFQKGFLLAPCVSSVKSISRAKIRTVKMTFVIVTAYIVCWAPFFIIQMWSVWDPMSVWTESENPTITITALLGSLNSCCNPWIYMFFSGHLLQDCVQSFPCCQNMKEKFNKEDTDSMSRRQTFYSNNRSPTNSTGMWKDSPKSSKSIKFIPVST
Excerpt: (§1) B-1. Cellular In Vitro Assay for Determining the Vasopressin Receptor Activity
(§2) The identification of agonists and antagonists of the V1a and V2 vasopressin receptors from humans and rats and also the quantification of the activity of the substances described here took place using recombinant cell lines. These cells derive originally from a hamster ovary epithelial cell (Chinese Hamster Ovary, CHO K1, ATCC: American Type Culture Collection, Manassas, Va. 20108, USA). The test cell lines constitutively express a modified form of the calcium-sensitive photoprotein aequorin, which, after reconstitution with the cofactor coelenterazine, emits light when there are increases in the free calcium concentration (Rizzuto R., Simpson A. W., Brini M., Pozzan T.; Nature 358 (1992) 325-327). In addition, the cells are stably transfected with the human or rat V1a or V2 receptors. In the case of the Gs-coupling V2 receptors, the cells are stably transfected with a further gene, which codes for the promiscuous Gα16 protein (Amatruda T. T., Steele D. A., Slepak V. Z., Simon M. I., Proc. Nat. Acad. Sci. USA 88 (1991), 5587-5591), either independently or as a fusion gene. The resulting vasopressin receptor test cells react to stimulation of the recombinantly expressed vasopressin receptors by intracellular release of calcium ions, which can be quantified by the resulting aequorin luminescence using a suitable luminometer (Milligan G., Marshall F., Rees S., Trends in Pharmaco. Sci. 17 (1996) 235-237).
(§3) Test procedure: On the day before the assay, the cells are plated out in culture medium (DMEM, 10% FCS, 2 mM glutamine, 10 mM HEPES) in 384-well microtiter plates and kept in a cell incubator (96% humidity, 5% v/v carbon dioxide, 37° C.). On the day of the assay, the culture medium is replaced by a Tyrode solution (140 mM sodium chloride, 5 mM potassium chloride, 1 mM magnesium chloride, 2 mM calcium chloride, 20 mM glucose, 20 mM HEPES), which additionally contains the cofactor coelenterazine (50 μM), and the microtiter plate is then incubated for a further 3-4 hours. The test substances in various concentrations are placed for 10 to 20 minutes in the wells of the microtiter plate before the agonist [Arg8]-vasopressin is added, and the resulting light signal is measured immediately in the luminometer. The IC50 values are calculated using the GraphPad PRISM computer program (Version 3.02).
(§4) The table below lists representative IC50 values for the compounds of the invention on the cell line transfected with the human V1a or V2 receptor: […]

human V2 receptor = target: T2, human V2 receptor (Homo sapiens, UniProt P30518); assay: Cellular in vitro assay for vasopressin receptor activity (aequorin luminescence), hV2; assay type: cell-based; settings: CHO cell line transfected with the human V2 receptor and Gα16, agonist [Arg8]-vasopressin
T2 construct: Galpha16 (possible fusion partner; the text says either independent or a fusion gene); expressed in transfected cells; host or cells: CHO K1 (constitutively expressing modified aequorin, co-transfected with Gα16)
T2 sequence (P30518 whole entry, the tested form may be a part): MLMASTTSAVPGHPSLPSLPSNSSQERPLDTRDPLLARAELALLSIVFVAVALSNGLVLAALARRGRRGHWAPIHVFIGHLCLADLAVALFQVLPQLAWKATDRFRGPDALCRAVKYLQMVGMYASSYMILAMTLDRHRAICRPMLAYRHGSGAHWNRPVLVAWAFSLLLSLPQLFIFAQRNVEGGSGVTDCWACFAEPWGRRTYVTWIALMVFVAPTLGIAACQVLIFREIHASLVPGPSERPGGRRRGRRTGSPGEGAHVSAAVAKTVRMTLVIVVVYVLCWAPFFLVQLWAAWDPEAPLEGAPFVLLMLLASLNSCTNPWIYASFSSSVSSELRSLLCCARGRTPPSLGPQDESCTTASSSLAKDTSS
Excerpt: as §1, §2, §3, §4

Row | SMILES | IC50 (human V1a receptor) [nM] | IC50 (human V2 receptor) [nM]
1 | COc1cccc(C(NC(=O)Cn2nc(-c3ccc(Cl)cc3)n(C[C@H](O)C(F)(F)F)c2=O)c2cccc(C(F)(F)F)c2)n1 (single isomer, unassigned) [Example 18] | 32 | 91
2 | COc1cccc(C(NC(=O)Cn2nc(-c3ccc(Cl)cc3)n(C[C@H](O)C(F)(F)F)c2=O)c2cccc(C(F)(F)F)c2)n1 (single isomer, unassigned) [Example 19] | 4.6 | 7.1
3 | Cc1noc([C@](C)(NC(=O)Cn2nc(-c3ccc(Cl)cc3)n(C[C@H](O)C(F)(F)F)c2=O)c2cccc(C(F)(F)F)c2)n1 [Example 3, 2-{3-(4-Chlorophenyl)-5-oxo-4-[(2S)-3,3,3-trifluoro-2-hydroxypropyl]-4,5-dihydro-1H-1,2,4-triazol-1-yl}-N-{(1R)-1-(3-methyl-1,2,4-oxadiazol-5-yl)-1-[3-(trifluoro-methyl)phenyl]ethyl}acetamide] | 6.5 | 3.2
4 | C[C@@](NC(=O)Cn1nc(-c2ccc(Cl)cc2)n(C[C@H](O)C(F)(F)F)c1=O)(c1cccc(C(F)(F)F)c1)c1nnn[nH]1 [Example 4, 2-{3-(4-Chlorophenyl)-5-oxo-4-[(2S)-3,3,3-trifluoro-2-hydroxypropyl]-4,5-dihydro-1H-1,2,4-triazol-1-yl}-N-{(1R)-1-(1H-tetrazol-5-yl)-1-[3-(trifluoromethyl)phenyl]ethyl}acetamide] | 8.3 | 3.3
